We go through two molecules from article PMC10721898, “C5 methylation confers accessibility, stability and selectivity to picrotoxinin” (Nature Communications, 2023).

Data set [1] has as its system rat GABAA ion channel. As to the kind of experiment: Non-selective rat GABAA ion channel [3H]TBOB binding (antagonist radioligand) assay, rat cerebral cortex. The settings on record: for IC50: [3H]TBOB displacement, n = 1. As to the method:
The structurally privileged 5-methyl series was assayed for binding to both GABAA receptors (rat cortex membrane preparations) and RDL (expressed in Xenopus oocytes) and compared directly to the parent PXN (C5-H) series. The parallel series of PXN and 5MePXN analogs allowed us to interrogate the effect of the synthetically-enabling and stabilizing C5 methyl. […]
4. Rat GABAA receptors binding assay
Non-selective rat GABAA ion channel [3H] TBOB binding (Antagonist Radioligand) assay was conducted by Eurofins Pharma Discovery Service of Eurofins Cerep, France.
Compound binding was calculated as a % inhibition of the binding of the radioactive ly labeled ligand [3H] TBOB (t‐[3H]Butylbicycloorthobenzoate) for rat GABAA ion channels.9 A 20.0 mM stock solution was prepared in DMSO from each test compound to evaluate radioligand displacement of [3H] TBOB from rat cerebral cortex GABAA receptors at different concentrations.
The results are expressed as a percent of control specific binding measured specific binding*100 […]
and as a percent inhibition of control specific binding
100 − (measured specific binding*100) […]
obtained in the presence of the test compounds.
The IC50 values (concentration causing a half -maximal inhibition of control specific binding) and Hill coefficients (nH) were determined by non -linear regression analysis of th e competition curves generated with mean replicate values using Hill equation curve fitting […]
where Y = specific binding, A = left asymptote of the curve, D = right asymptote of the curve , C = compound concentration, C 50 = IC50, and nH = slope factor. This analysis was performed using software developed at Cerep (Hill software) and validated by comparison with data generated by th e commercial software SigmaPlot® 4.0 for Windows ® (© 1997 by SPSS Inc.).
The inhibition constants (K i) were calculated using the Cheng Prusoff equation where L = concentration of radioligand in the assay, and KD = affinity of the radioligand for the recept or. A scatchard plot is used to determine the K D.
Supplementary Table 8. IC50 values of test compound
(§1) Compound IC50 (µM) Compound IC50 (µΜ)

Data set [2] has as its target T1, Drosophila RDL (Drosophila melanogaster, UniProt P25123).
T1 construct: expressed in transfected cells; host or cells: Xenopus oocytes (Ecocyte, Austin, TX) microinjected with capped cRNA
T1 sequence (P25123 45-606): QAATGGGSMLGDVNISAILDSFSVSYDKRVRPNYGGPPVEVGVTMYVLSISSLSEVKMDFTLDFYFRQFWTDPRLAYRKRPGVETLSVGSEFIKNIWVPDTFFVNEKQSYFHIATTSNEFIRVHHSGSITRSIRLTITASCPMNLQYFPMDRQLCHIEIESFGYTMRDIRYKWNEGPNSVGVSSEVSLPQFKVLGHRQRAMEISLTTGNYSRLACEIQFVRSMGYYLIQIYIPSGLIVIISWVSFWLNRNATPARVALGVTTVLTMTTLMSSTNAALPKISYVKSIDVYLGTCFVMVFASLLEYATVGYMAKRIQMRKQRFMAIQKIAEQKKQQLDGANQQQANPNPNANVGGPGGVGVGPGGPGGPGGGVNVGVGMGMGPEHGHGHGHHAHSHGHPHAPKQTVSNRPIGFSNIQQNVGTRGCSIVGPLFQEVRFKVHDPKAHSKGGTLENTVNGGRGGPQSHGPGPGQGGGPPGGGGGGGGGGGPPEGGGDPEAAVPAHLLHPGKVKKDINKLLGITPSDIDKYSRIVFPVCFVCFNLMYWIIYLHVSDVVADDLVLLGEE
As to the kind of experiment: RDL receptors assay: two-electrode voltage clamp electrophysiology in Xenopus oocytes. Format: cell-based. On the procedure: 5. RDL receptors binding assay
The Drosophila RDL sequence (NP_01261616.1) was cloned into the pGH19 backbone via Gibson assembly for capped cRNA synthesis using the T7 mMessage mMachine kit (Invitrogen). cRNA samples were stored at - 80 °C until use. Ready to inject Xenopus oocytes were obtained from Ecocyte (Austin, TX) and microinjected using a Nanoinject III (Drummond Scientific) with 4 nL of cRNA (1 μg/μL). The oocytes were then incubated at 16 °C in ND96 storage solution (93.5 mM NaCl, 2 mM KCl, 1.8 mM CaCl 2·2H2O, 2 mM MgCl 2·6H2O, 5 mM HEPES at pH 7.5). Recording were made 1 -6 days post injection.
Electrophysiology experiments were performed using an automated two -electrode voltage clamp set -up (Roboocyte 2, Mutlichannel Systems). Recording head were filled with 3M KCl and gave resistan ce of 100-2000 kΩ in medium. Membrane potential was held at -60 mV and current signal was sampled at 20 kHz.
Experiments were performed at room temperature using Modified Barth’s Saline (MBS) (88 mM NaCl, 1 mM KCl, 2.4 mM NaHCO 3, 15 mM HEPES, 0.3 mM Ca(NO3)2, 0.41 mM CaCl 2, and 0.82 mM MgSO 4·7H2O at pH 7.4). Oocytes were perfused with MBS at 5 mL/min in all assays. GABA and all compounds were dissolved in MBS and a 0.1% DMSO negative control was utilized to correct for any solvent effect.
Initial block potential of each compound was assessed utilizing a pre -incubation method (MBS (30 sec), 10 μM GABA (15 sec), MBS wash (60 sec), compound (60 sec), compound + 10 μM GABA (15 sec), compound (60 sec), compound + 10 μM GABA (15 sec), MBS wash (60 sec) with 10 μM of each test compound. The maximum signal of the second co -application was compared to the initial GABA response to determine the % block and then standardized against the corresponding value of the 0.1% DMSO control. Dose responses were performed for any compound showing >50% block in the initial test using 10, 1, and 0.1 μM. The IC50 values were fit using an inhibitor vs response 4 -parameter fit (GraphPad Prism 8.1.2).
Supplementary Table 9. IC50 values of test compound
as §1
(Two-electrode voltage clamp is typically applied to oocytes expressing channels or transporters.)

Data set [3] relates to rat GABAA ion channel. As to conditions: preliminary screen; read-out: IC50, competition with [3H]TBOB for binding to rat cerebral cortex; cited from earlier work.
The conditions of data set [4]: reversible solvolysis; cited from earlier work.

Where two headings read alike, the source gives them in different places.

As usually defined, the IC50 is the point on the concentration scale where inhibition reaches its midpoint. `C=C(C)C1C2OC(=O)C1(C)C1(O)CC3OC34C(=O)OC2C41C` (stereo not shown) [5MePXN, 5-methylpicrotoxinin]: the “loss in potency from PXN” value in data set [1] ([3H]TBOB binding) is reported as 10 fold. Besides, the IC50 in data set [1] (Supplementary Table 8 (5MePXN series)) was 1.8 µM; in data set [2] it was 1.71 µM; in data set [3], 2.1 ± 0.3 µM.

Regarding `C=C(C)[C@@H]1[C@H]2OC(=O)[C@@H]1[C@]1(O)C[C@H]3O[C@]34C(=O)O[C@H]2[C@]14C` [PXN, picrotoxinin], the “half-life in mouse plasma” value in data set [4] was ~ 1 h. The IC50 in data set [1] (Supplementary Table 8 (PXN series)) was 0.21 µM; in data set [2], 0.8 µM.
